Values joined by “and” are separate entries in the source; they are usually repeats but may differ in a detail not shown here. Equal values may be shown once. Read-outs that look alike come from different tables or passages of the source.
How the values were obtained:
YFV-17D [1] = experiment: microbe, parasite or virus in culture; format: cell-based; details: Yellow fever virus, Huh-7, 72 h; for EC50: read-out: Anti-YFV-17D activity 3D spheroids EC50; for EC90: read-out: Anti-YFV-17D activity 3D spheroids EC90
[2] = system: Japanese encephalitis virus (JEV); details: read-out: EC50 against Japanese encephalitis virus; cited from earlier work
YFV-17D [3] = experiment: microbe, parasite or virus in culture; format: cell-based; details: Yellow fever virus, Macrophage, 72 h; for EC50: read-out: Anti-YFV-17D activity MDM EC50; for EC90: read-out: Anti-YFV-17D activity MDM EC90
YFV-DakH1279 = experiment: microbe, parasite or virus in culture; format: cell-based, Yellow fever virus; details: for EC50 / EC90: Yellow fever virus, Huh-7, 48 h; for EC50: read-out: Anti-YFV-DakH1279 EC50 (reduction in infectious virus); for EC90: read-out: Anti-YFV-DakH1279 EC90 (reduction in infectious virus)
in vitro [4] = details: African green monkey
HCV = details: read-out: EC50 against HCV; cited from earlier work
YFV-17DD [5] = details: mouse, in vivo
[6] = rat, in vivo; cited from earlier work
Zika virus (ZIKV) = details: read-out: EC50 against Zika virus; cited from earlier work
dengue virus (DENV) = details: read-out: EC50 against dengue virus; cited from earlier work
Huh-7 cells = experiment: cells; details: Homo sapiens, Huh-7, 336 h
cell lines = details: cited from earlier work
YFV-17D [7] = experiment: microbe, parasite or virus in culture; format: cell-based; details: Yellow fever virus; for EC90: read-out: Anti-YFV-17D activity Huh-7 EC90
YFV-17D [8] = experiment: microbe, parasite or virus in culture; format: cell-based; details: Yellow fever virus, Huh-7, 72 h; for EC50: read-out: Anti-YFV-17D EC50 (reduction in infectious virus); for EC90: read-out: Anti-YFV-17D EC90 (reduction in infectious virus)
[9] = system: clinical YFV isolate (WT306); details: mouse, in vivo, 10 mg/kg
YFV-17DD [10] = details: mouse, in vivo; cited from earlier work
in vitro [11] = details: human
in vitro [12] = details: human; remark: listed apart in the source
YFV [13] = details: mouse, in vivo; cited from earlier work
in vitro [14] = details: human; remark: listed apart in the source
YFV [15] = details: cited from earlier work
[16] = read-out: Mitotoxicity (Huh-7) IC50 MtDNA
[17] = read-out: Mitotoxicity (Huh-7) IC50 nDNA
[18] = Huh-7, 72 h, read-out: Anti-YFV-17D activity Huh-7 EC50

Compound | EC50 (YFV-17D [1]) | EC90 (YFV-17D [1]) | EC50 (YFV-17D [3]) | EC90 (YFV-17D [3]) | EC50 (YFV-DakH1279) | EC90 (YFV-DakH1279) | CC50 (in vitro [4]) | IC50 (Huh-7 cells; [16]) | IC50 (Huh-7 cells; [17]) | cytotoxicity CC50 (cell lines) | EC50 (YFV-17D [7]; [18]) | EC90 (YFV-17D [7]; Huh-7, 72 h) | EC50 (YFV-17D [8]) | EC90 (YFV-17D [8]) | Average infectious YFV yield, YFV-DakH1279 (YFV-DakH1279) | also measured
C[C@@]1(O)[C@H](O)[C@@H](CO)O[C@H]1n1cc(F)c2c(N)ncnc21 [DFA, 7-deaza-7-fluoro-2′-C-methyladenosine] | 5500 ± 1300 nM | 12600 ± 1900 nM | 500 ± 400 nM | 1000 ± 600 nM | 2400 ± 1900 nM | 5000 ± 3100 nM | 92400 ± 8100 nM | > 50000 nM | > 50000 nM | >100–>200 | 900 ± 600 nM | 3400 ± 500 nM | 800 ± 400 nM | 5600 ± 2600 nM |  | EC50 [2]: 900 nM; EC50 (HCV): 70 to 900 nM; body weight (YFV-17DD [5]): no significant changes; inflammatory cell infiltration, infiltrate score (YFV-17DD [5]): ~ 1; total white blood cell numbers (YFV-17DD [5]): no significant changes; ALT levels (YFV-17DD [5]; 10 mg/kg): significantly reduced; YFV-17DD replication in the livers (qRT-PCR) (YFV-17DD [5]; 10 mg/kg): significantly reduced; liver pathology by histopathological analysis (YFV-17DD [5]; 10 mg/kg): reduced liver pathology; overall health status (YFV-17DD [5]; 10 mg/kg): no notable impact; pharmacokinetic profile [6]: favorable pharmacokinetic profile; EC50 (Zika virus (ZIKV)): 3700 nM; EC50 (dengue virus (DENV)): 500 to 1000 nM; EC50 (YFV-17D [7]; Huh-7, read-out: EC50 against YFV-17D in vitro (summary range)): 900 to 5500 nM; ALT levels [9]: markedly reduced; YFV-mediated liver pathology (histology) [9]: significantly reduced; clinical severity (clinical disease score) [9]: modest but significant decrease; leukocytosis (total circulating leukocytes) [9]: significantly reduced; total portion of granulocytes in the blood [9]: significantly reduced; virus replication in the liver, infectious virions (plaque assay) [9]: significantly reduced; virus replication in the liver, total genome copy numbers [9]: significantly reduced
CC(C)OC(=O)[C@H](C)N[P@](=O)(OC[C@H]1O[C@@H](n2ccc(=O)[nH]c2=O)[C@@](F)(Br)[C@@H]1O)Oc1ccccc1 [Compound 2-FBU] | 2200 ± 200 nM | 7700 ± 300 nM | 200 ± 100 nM | 3000 ± 1600 nM | 1700 ± 1100 nM | 3500 ± 2300 nM | > 100000 nM | 40900 nM | > 50000 nM | 68.9–>100 | 900 ± 800 nM | 8100 ± 3500 nM | 1200 ± 500 nM | 8600 ± 3100 nM | 4.0x10^4 ± 6.1x10^3 FFU/mL and 2.4x10^4 ± 9.8x10^3 FFU/mL and 3.3x10^3 ± 2.4x10^3 FFU/mL and 2.8x10^2 ± 1.7x10^2 FFU/mL | log reduction in YFV genome copies in the liver tissue (YFV-17DD [10]): 0.7 log; percent reduction in YFV genome copies in the liver tissue (YFV-17DD [10]): ~ 80%
CC(C)OC(=O)[C@H](C)N[P@](=O)(OC[C@H]1O[C@@H](n2ccc(=O)[nH]c2=O)[C@](C)(F)[C@@H]1O)Oc1ccccc1 [Sofosbuvir] |  |  | 1000 ± 700 nM | 2400 ± 1500 nM | 1600 ± 1300 nM | 3100 ± 2400 nM | > 100000 nM | > 50000 nM | > 50000 nM |  | 600 ± 600 nM | 3000 ± 2500 nM | 300 ± 100 nM | 1200 ± 100 nM | 2.7x10^4 ± 1.1x10^4 FFU/mL and 1.4x10^4 ± 1.2x10^4 FFU/mL and 2.2x10^3 ± 1.2x10^3 FFU/mL and 1.8x10^2 ± 1.2x10^2 FFU/mL | CC50 (in vitro [11]): > 100000 nM; CC50 (in vitro [12]): > 100000 nM; efficacy against YFV in mice (YFV [13]): little efficacy; CC50 (in vitro [14]): 85600 ± 11600 nM
Nc1ncnc2c([C@@H]3N[C@H](CO)[C@@H](O)[C@H]3O)c[nH]c12 [Galidesivir] |  |  |  |  |  |  |  |  |  |  |  |  |  |  |  | activity against YFV in vitro (YFV [15]): active
